Series [1] can be described thus: Solubility of moxifloxacin HCl in the presence of sodium chloride. The series is classed as physicochemical. The settings on record: for Solubility moxifloxacin HCl: 5° C.; for solubility thermodynamic: sodium chloride solution, 5 °C, thermodynamic from solid. As to the method:
For a dosage range of from 100 mg to 1000 mg at active compound concentrations of from 0.04% to 0.4% (w/v) of moxifloxacin hydrochloride, it is thus possible to adjust the osmotic pressure to physiological conditions by adding from 0.4% to 0.9% of sodium chloride. […] This ensures that, even on short-term cold storage, there is no precipitation of the active compound as a result of exceeding the saturation solubilities. [table]

A short description of the next series: physchem. The settings on record: water (aqueous solution without NaCl).

Counter-ions that a name gives are not always drawn.

On to `COc1c(N2C[C@@H]3CCCN[C@@H]3C2)c(F)cc2c(=O)c(C(=O)O)cn(C3CC3)c12` [moxifloxacin HCl, 1-cyclopropyl-7-([S,S]-2,8-diazabicyclo[4.3.0]non-8-yl)-6-fluoro-1,4-dihydro-8-methoxy-4-oxo-3-quinolonecarboxylic acid], for which the “Solubility moxifloxacin HCl” value in series [1] (NaCl 0.7 % (w/v)) and in series [1] (NaCl 0.8 % (w/v)) was 0.2 % (w/v) throughout. For the same compound, the thermodynamic solubility – broadly, solubility found after equilibrating the solid with the medium – in series [1] (saline or isotonic, NaCl 0.1 % (w/v)) came out at 11000 µg/mL; in series [1] (saline or isotonic, NaCl 0.2 % (w/v)) it was 7000 µg/mL; in series [1] (saline or isotonic, NaCl 0.3 % (w/v)) it was 5000 µg/mL; in series [1] (saline or isotonic, NaCl 0.4 % (w/v)), 4000 µg/mL; in series [1] (saline or isotonic, NaCl 0.5 % (w/v)), 3000 µg/mL; in series [1] (saline or isotonic, NaCl 0.6 % (w/v)), 2000 µg/mL. Also, the thermodynamic solubility in series [1] (saline or isotonic, NaCl 0.9 % (w/v)) was 1000 µg/mL; in series [1] (water, NaCl 0 % (w/v)) it was 18000 µg/mL; in the series “physchem”, roughly 24000 µg/mL.
